Test results taken from DBAASP.
Values after ≈ are worked out from the molar mass of the structure shown.

What was measured:
Assay in all cases: ≥ marks a high value that may be exact or a test limit, other limits are often not marked, values filed in µg/mL are converted to µM
[1] = system: Aeromonas caviae IP67-16T
[2] = system: Trichophyton simii IP1063-74
[3] = system: Candida albicans IP884-65
Microsporum canis IP1194 = system: Microsporum canis IP1194
[4] = system: Cryptococcus neoformans IP962-67
[5] = system: Candida albicans IP886-65
[6] = system: Saccharomyces cerevisiae IP118079
[7] = system: Nocardia brasiliensis IP16-80
[8] = system: Staphylococcus aureus IP76-25
Escherichia coli IP76-24 = system: Escherichia coli IP76-24
[9] = system: Trichophyton rubrum IP2043-92
[10] = system: Trichophyton mentagrophytes IP877-71
[11] = system: Enterococcus faecalis IP103214
[12] = system: Aspergillus niger IP218-53
[13] = system: Cryptococcus neoformans IP960-67
[14] = system: Aspergillus fumigatus IP1025-70
[15] = system: Trichophyton simii J43 IP903-65
[16] = system: Enterococcus faecalis WHO 14
[17] = system: Acinetobacter calcoaceticus ATCC 2305-5
[18] = system: Pseudomonas aeruginosa ATCC 27853
[19] = system: Bacillus subtilis ICTA-07
[20] = system: Micrococcus luteus ATCC 4698
[21] = system: Yersinia enterocolitica ATCC 9610
Carnobacterium mobile = system: Carnobacterium mobile
Fusarium oxysporum = system: Fusarium oxysporum
[22] = system: Pseudomonas aeruginosa U-31
[23] = system: Staphylococcus aureus FDA 209P
[24] = system: Bacillus subtilis PCI 219
[25] = system: Escherichia coli NIHJ JC-2
[26] = system: Bacillus subtilis var. niger ATCC 9372
[27] = system: Bacillus anthracis Sterne 34F2
Escherichia coli K91BK = system: Escherichia coli K91BK
[28] = system: Staphylococcus aureus KCTC 1621
[29] = system: Bacillus subtilis KCTC 1918
[30] = system: Bacillus megaterium KCTC 1096
[31] = system: Escherichia coli KCTC 1682
Proteus vulgaris = system: Proteus vulgaris
[32] = system: Pseudomonas aeruginosa KCTC 1637

`CC[C@H](C)[C@H](NC(=O)[C@H](CCCCN)NC(=O)[C@H](CO)NC(=O)[C@H](Cc1c[nH]c2ccccc12)NC(=O)[C@H](CC(C)C)NC(=O)CN)C(=O)N[C@@H](CCCCN)C(=O)N[C@H](C(=O)N[C@@H](C)C(=O)NCC(=O)N[C@@H](CCCCN)C(=O)N[C@@H](CO)C(=O)N[C@H](C(=O)N[C@@H](C)C(=O)N[C@@H](CCCCN)C(=O)N[C@@H](C)C(=O)N[C@@H](C)C(=O)N[C@@H](C)C(=O)N[C@@H](CCCCN)C(=O)N[C@@H](C)C(=O)N[C@@H](C)C(=O)N[C@H](C(=O)N[C@@H](CCCCN)C(=O)N[C@@H](C)C(=O)N[C@H](C(=O)N[C@H](C(=O)N[C@@H](CC(N)=O)C(=O)N[C@@H](C)C(=O)N[C@H](C(=O)O)C(C)C)[C@@H](C)O)C(C)C)C(C)C)C(C)C)[C@@H](C)O` [GLWSKIKTAGKSVAKAAAKAAVKAVTNAV] was tested, and the MIC [1] was no less than 35 µM, the MIC [2] was 30 µM (≈ 85.2 µg/mL) and the MIC [3] was 10 µM (≈ 28.4 µg/mL). It also gave an MIC (Microsporum canis IP1194) of 15 µM (≈ 42.6 µg/mL), an MIC [4] of 1 µM (≈ 2.84 µg/mL) and an MIC [5] of 10 µM (≈ 28.4 µg/mL). It also gave an MIC [6] of 5 µM (≈ 14.2 µg/mL), an MIC [7] of no less than 40 µM and an MIC [8] of 2 µM (≈ 5.68 µg/mL). The MIC (Escherichia coli IP76-24) was no less than 35 µM, the MIC [9] was 20 µM (≈ 56.8 µg/mL) and the MIC [10] was 20 µM (≈ 56.8 µg/mL). The MIC [11] was no less than 40 µM, the MIC [12] was 30 µM (≈ 85.2 µg/mL) and the MIC [13] was 1 µM (≈ 2.84 µg/mL). The MIC [14] was no less than 70 µM and the MIC [15] was 20 µM (≈ 56.8 µg/mL).

For `CSCC[C@@H]1NC(=O)[C@H](Cc2c[nH]c3ccccc23)NC(=O)[C@H](C)NC(=O)[C@H](Cc2ccc(O)cc2)NC(=O)[C@@H]2CSSC[C@@H]3NC(=O)[C@H](CO)NC(=O)[C@H](Cc4ccc(O)cc4)NC(=O)[C@H](CCCCN)NC(=O)[C@@H](NC(=O)CNC(=O)[C@H](CC(=O)O)NC(=O)[C@H](CC(N)=O)NC(=O)CNC(=O)[C@@H](NC(=O)[C@H](CC(C)C)NC(=O)[C@H](Cc4ccc(O)cc4)NC(=O)CNC(=O)[C@H](CC(=O)O)NC(=O)[C@@H](N)CCCCN)C(C)C)CSSC[C@@H](C(=O)NCC(=O)N[C@@H](CCCN=C(N)N)C(N)=O)NC(=O)[C@H](CCCN=C(N)N)NC(=O)[C@H](CC(N)=O)NC(=O)[C@H]([C@@H](C)O)NC(=O)[C@H](C)NC(=O)[C@H](CCCN=C(N)N)NC(=O)[C@H](CC(N)=O)NC(=O)[C@H](Cc4c[nH]c5ccccc45)NC(=O)[C@H]([C@@H](C)O)NC(=O)[C@H](CCCCN)NC(=O)[C@H](C(C)C)NC(=O)[C@H](Cc4c[nH]c5ccccc45)NC(=O)[C@H](CC(N)=O)NC(=O)[C@@H]4CCCN4C(=O)[C@H](CCSC)NC(=O)[C@H](CO)NC(=O)[C@H](Cc4ccc(O)cc4)NC(=O)[C@@H]4CSSC[C@H](NC(=O)[C@H](CCC(=O)O)NC(=O)[C@H](CC(N)=O)NC(=O)[C@H](C)NC(=O)[C@H](CSSC[C@H](NC(=O)[C@H](C)NC1=O)C(=O)N[C@@H](Cc1ccc(O)cc1)C(=O)N4)NC(=O)[C@H](Cc1ccc(O)cc1)NC(=O)[C@H]([C@@H](C)O)NC(=O)CNC(=O)[C@@H]1CCCN1C(=O)[C@H](CCCN=C(N)N)NC(=O)[C@H]([C@@H](C)O)NC(=O)[C@H](Cc1ccccc1)NC3=O)C(=O)N[C@@H](CO)C(=O)N[C@@H](CCCN=C(N)N)C(=O)N[C@@H](C(C)C)C(=O)N[C@@H](CCCCN)C(=O)NCC(=O)N[C@@H](CCCCN)C(=O)N[C@@H](CC(=O)O)C(=O)NCC(=O)N[C@@H](Cc1ccc(O)cc1)C(=O)N2` [KDGYLVGNDGCKYSCFTRPGTYCANECSRVKGKDGYCYAWMACYCYSMPNWVKTWNRATNRCGR], the MIC [16] was no less than 65 µM, the MIC [17] was 27 µM (≈ 199 µg/mL) and the MIC [18] was 54 µM (≈ 398 µg/mL). For the same molecule, the MIC [19] was 30 µM (≈ 221 µg/mL), the MIC [20] was 27 µM (≈ 199 µg/mL) and the MIC [21] was no less than 46 µM.

For `CSCC[C@H](N)C(=O)N[C@@H](C)C(=O)N[C@@H](CO)C(=O)N[C@@H](CCCN=C(N)N)C(=O)N[C@@H](C)C(=O)N[C@@H](C)C(=O)NCC(=O)N[C@@H](CC(C)C)C(=O)N[C@@H](C)C(=O)N[C@@H](C)C(=O)N[C@@H](CCCN=C(N)N)C(=O)N[C@@H](CC(C)C)C(=O)N[C@@H](C)C(=O)N[C@@H](CCCN=C(N)N)C(=O)N[C@@H](CC(C)C)C(=O)N[C@@H](C)C(=O)N[C@@H](CC(C)C)C(=O)N[C@@H](CCCN=C(N)N)C(=O)N[C@@H](C)C(=O)N[C@@H](CC(C)C)C(=O)O` [MASRAAGLAARLARLALRAL], the MIC (Carnobacterium mobile) was 0.05 µM (≈ 0.103 µg/mL) and the MIC (Fusarium oxysporum) was 1 µM (≈ 2.05 µg/mL).

In the case of `CC(C)C[C@H](NC(=O)[C@H](CC(C)C)NC(=O)[C@H](CC(C)C)NC(=O)[C@H](CCCCN)NC(=O)[C@H](CC(C)C)NC(=O)[C@H](CC(C)C)NC(=O)[C@H](CCCCN)NC(=O)[C@H](CC(C)C)NC(=O)[C@H](Cc1c[nH]c2ccccc12)NC(=O)[C@H](CC(C)C)NC(=O)[C@H](CCCCN)NC(=O)[C@H](CC(C)C)NC(=O)[C@H](CC(C)C)NC(=O)[C@H](CC(C)C)NC(=O)[C@H](CCCCN)NC(=O)[C@H](CC(C)C)NC(=O)[C@H](CC(C)C)NC(=O)[C@@H](N)CCCCN)C(=O)O` [KLLKLLLKLWLKLLKLLL], the MIC [22] is reported as no less than 45.4 µM, the MIC [23] is reported as no less than 45.4 µM and the MIC [24] is reported as no less than 45.4 µM. It also gave an MIC [25] of no less than 45.4 µM.

`CC(=O)N[C@@H](CCCCN)C(=O)N[C@@H](Cc1c[nH]c2ccccc12)C(=O)N[C@@H](CCCCN)C(=O)N[C@@H](CCCCN)C(=O)N[C@@H](CC(C)C)C(=O)N1CCC[C@H]1C(=O)N[C@@H](CCCCN)C(=O)N[C@@H](CCCCN)C(=O)N[C@@H](CC(C)C)C(=O)N[C@@H](CC(C)C)C(=O)N[C@@H](CCCCN)C(=O)N[C@@H](CC(C)C)C(=O)N[C@@H](CC(C)C)C(N)=O` [KWKKLPKKLLKLL] gave an MIC [26] of 8.84 µM (≈ 14.8 µg/mL), an MIC [27] of no less than 100 µM and an MIC (Escherichia coli K91BK) of no less than 100 µM.

For `CC[C@H](C)[C@H](NC(=O)[C@H](CCCCN)NC(=O)[C@H](CCCCN)NC(=O)[C@@H](N)Cc1c[nH]c2ccccc12)C(=O)N1CCC[C@H]1C(=O)N[C@@H](CCCCN)C(=O)N[C@@H](Cc1ccccc1)C(=O)N[C@@H](CC(C)C)C(=O)N[C@@H](Cc1cnc[nH]1)C(=O)N[C@@H](CC(C)C)C(=O)N[C@@H](CC(C)C)C(=O)N[C@@H](CCCCN)C(=O)N[C@@H](CCCCN)C(=O)N[C@@H](Cc1ccccc1)C(N)=O` [WKKIPKFLHLLKKF], the MIC [28] was 3.12 µM (≈ 5.7 µg/mL), the MIC [29] was 0.78 µM (≈ 1.42 µg/mL) and the MIC [30] was 1.56 µM (≈ 2.85 µg/mL). It also gave an MIC [31] of 6.25 µM (≈ 11.4 µg/mL), an MIC (Proteus vulgaris) of 12.5 µM (≈ 22.8 µg/mL) and an MIC [32] of 3.12 µM (≈ 5.7 µg/mL).
